Test results from the NIST ThermoML archive (doi:10.1021/je101361u).

Settings: 101.33 kPa, Liquid

ClCCCl [1,2-dichloroethane]
Settings | mass density [kg/m3]
283.15 K | 1267.39
284.15 K | 1265.95
285.15 K | 1264.5
286.15 K | 1263.05
287.15 K | 1261.6
288.15 K | 1260.15
289.15 K | 1258.7
290.15 K | 1257.25
291.15 K | 1255.8
292.15 K | 1254.35
293.15 K | 1252.89
294.15 K | 1251.44
295.15 K | 1249.98
296.15 K | 1248.52
297.15 K | 1247.07
298.15 K | 1245.61
299.15 K | 1244.15
300.15 K | 1242.69
301.15 K | 1241.22
302.15 K | 1239.76
303.15 K | 1238.29
304.15 K | 1236.83
305.15 K | 1235.36
306.15 K | 1233.89
307.15 K | 1232.42
308.15 K | 1230.95
309.15 K | 1229.47
310.15 K | 1228
311.15 K | 1226.53
312.15 K | 1225.05
313.15 K | 1223.57
314.15 K | 1222.09
315.15 K | 1220.61
316.15 K | 1219.13
317.15 K | 1217.64
318.15 K | 1216.16
319.15 K | 1214.67
320.15 K | 1213.18
321.15 K | 1211.69
322.15 K | 1210.2
323.15 K | 1208.7
324.15 K | 1207.21
325.15 K | 1205.71
326.15 K | 1204.21
327.15 K | 1202.71
328.15 K | 1201.21
329.15 K | 1199.7
330.15 K | 1198.19
331.15 K | 1196.69
332.15 K | 1195.18
333.15 K | 1193.66

COCCOC [1,2-dimethoxyethane]
Settings | mass density [kg/m3]
283.15 K | 877.64
284.15 K | 876.56
285.15 K | 875.48
286.15 K | 874.4
287.15 K | 873.31
288.15 K | 872.23
289.15 K | 871.14
290.15 K | 870.05
291.15 K | 868.96
292.15 K | 867.87
293.15 K | 866.79
294.15 K | 865.7
295.15 K | 864.61
296.15 K | 863.51
297.15 K | 862.42
298.15 K | 861.32
299.15 K | 860.22
300.15 K | 859.12
301.15 K | 858.01
302.15 K | 856.91
303.15 K | 855.8
304.15 K | 854.69
305.15 K | 853.58
306.15 K | 852.46
307.15 K | 851.35
308.15 K | 850.24
309.15 K | 849.13
310.15 K | 848.02
311.15 K | 846.9
312.15 K | 845.79
313.15 K | 844.67
314.15 K | 843.55
315.15 K | 842.42
316.15 K | 841.29
317.15 K | 840.17
318.15 K | 839.04
319.15 K | 837.91
320.15 K | 836.77
321.15 K | 835.64
322.15 K | 834.5
323.15 K | 833.36
324.15 K | 832.22
325.15 K | 831.08
326.15 K | 829.93
327.15 K | 828.78
328.15 K | 827.63
329.15 K | 826.48
330.15 K | 825.33
331.15 K | 824.17
332.15 K | 823.02
333.15 K | 821.86
